For 18 molecules, EC50 and Emax results are on record in patent US20240109910A1, “HEXAHYDRO-5,8-EPOXYCYCLOHEPTA[c]PYRAZOLE DERIVATIVES USEFUL AS MODULATORS OF THE CB1 AND / OR CB2 RECEPTORS” (JANSSEN PHARMACEUTICA NV, priority 2019, published 2024).

For experiment [1], the target named is hCB2 receptor (Homo sapiens, UniProt P34972). Nature of the experiment: Agonism of CB2 by detection of cAMP using HTRF. To be noted: for Emax: normalized to DMSO and maximal activation (5 nM CP55940). The experiment is classed as cell-based. As to the method: (§1) Method for Assaying Agonism of CB1 or CB2 by Detection of cAMP Using Homogeneous Time-Resolved Fluorescence (HTRF®)
(§2) CHOP-K1 cells stably expressing the CB1 receptor (PerkinElmer, ES-110-C) or the CB2 receptor (PerkinElmer, ES-111-CF) were seeded into 384 well white TC-treated plates (Greiner 781080) at 7000 cells per well in Ham's media (Gibco #31765-035) supplemented with 10% FBS (Gibco #16000-044) and 500 μg/mL Geneticin (Gibco #10131-027) and cultured overnight. The next day, plates were washed one time in assay buffer (HBSS with Ca^2+ and Mg^2+ (Corning #21-023-CV)+20 mM HEPES (Corning #25-060-Cl) and 0.01% BSA (Sigma A2153)). In a separate compound plate (Greiner 781201-906), 50 nL of test compound or DMSO was transferred using the Echo 550 (Labcyte), then 40 μL/well of assay buffer with 0.5 mM IBMX, 2 μM Forskolin (Sigma F3917), and 0.01% BSA was added. For the CB1 assay, assay buffer was dumped from the cell plate and fresh assay buffer containing 0.5 mM IBMX (Sigma I5679) was added at 30 μL/well, and the plate was incubated for 1 hr at 37° C., 5% CO2. Following the IBMX pre-treatment step, buffer was dumped from the cell plate, and 20 μL/well of the assay buffer with test compound was transferred into the cell plate with a subsequent incubation of 20 min at room temperature. Reagents for cAMP detection (cisbio 62AM4PEJ) were prepared and subsequently transferred to the cell plate at 20 μL/well. Following a 1 hr incubation at room temperature, the plate was read on the Pherastar FX (BMG, excitation 320 nm, detection at 620 nm (donor) and 665 nm (acceptor)). The ratio of signal at 665 nm/620 nm was determined for each well in the plate. For each assay day, a cAMP standard curve was run in parallel to assess the range of response and determine the concentration of cAMP in each well. Control wells (n=16 of each) with no activation of CB1 receptor (DMSO) and maximal activation (5 nM CP55940, Sigma) were used to normalize the data and to determine signal-to-background ratio and Z′. For the CB2 assay, conditions were as described above for the CB1 assay, except that the IBMX preincubation step was not used and that the 20 min compound incubation step occurred in the incubator at 37° C., 5% CO2.
(§3) EC50 values were calculated from dose response curves by nonlinear regression analysis using PRISM software.
(§4) Representative compounds of the present invention were tested according to the procedures described in Biological Example 1 above, with results as listed in Table 3, below. If a compound was tested more than once (due to multiple samples or batches), then the value listed in Table 3 below represents the average of the measured values.

The target in experiment [2] is hCB1 receptor (Homo sapiens, UniProt P21554). As to the kind of experiment: Agonism of CB1 by detection of cAMP using HTRF. The experiment is classed as cell-based. To be noted: for Emax: normalized to DMSO and maximal activation (5 nM CP55940). On the procedure:
as §1, §2, §3, §4

Setting [3] is: CHO cells stably expressing CB2 receptor, cAMP HTRF, forskolin-stimulated, average if tested more than once, read-out: hCB2 CHO EC50.
The mark [4] stands for this setting: CHO cells stably expressing CB2 receptor.
Setting [5] is: CHO cells stably expressing CB1 receptor, cAMP HTRF, forskolin-stimulated, average if tested more than once, read-out: hCB1 CHO EC50.
[6] abbreviates: CHO cells stably expressing CB1 receptor.

Read-outs that look alike come from different tables or passages of the source.

Sequence of hCB1 receptor (P21554 whole entry): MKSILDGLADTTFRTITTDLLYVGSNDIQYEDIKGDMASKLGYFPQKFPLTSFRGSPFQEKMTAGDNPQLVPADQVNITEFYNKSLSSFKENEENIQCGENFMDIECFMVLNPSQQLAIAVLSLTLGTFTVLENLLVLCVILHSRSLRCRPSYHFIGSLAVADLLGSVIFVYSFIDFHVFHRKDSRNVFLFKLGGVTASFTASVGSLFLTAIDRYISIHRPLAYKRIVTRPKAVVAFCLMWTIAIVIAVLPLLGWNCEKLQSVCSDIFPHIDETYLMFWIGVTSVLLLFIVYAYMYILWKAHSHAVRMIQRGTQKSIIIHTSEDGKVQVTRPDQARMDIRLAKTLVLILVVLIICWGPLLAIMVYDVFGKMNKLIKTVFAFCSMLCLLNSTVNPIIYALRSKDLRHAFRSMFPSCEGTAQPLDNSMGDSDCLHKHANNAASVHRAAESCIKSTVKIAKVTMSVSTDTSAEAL
Sequence of hCB2 receptor (P34972 whole entry): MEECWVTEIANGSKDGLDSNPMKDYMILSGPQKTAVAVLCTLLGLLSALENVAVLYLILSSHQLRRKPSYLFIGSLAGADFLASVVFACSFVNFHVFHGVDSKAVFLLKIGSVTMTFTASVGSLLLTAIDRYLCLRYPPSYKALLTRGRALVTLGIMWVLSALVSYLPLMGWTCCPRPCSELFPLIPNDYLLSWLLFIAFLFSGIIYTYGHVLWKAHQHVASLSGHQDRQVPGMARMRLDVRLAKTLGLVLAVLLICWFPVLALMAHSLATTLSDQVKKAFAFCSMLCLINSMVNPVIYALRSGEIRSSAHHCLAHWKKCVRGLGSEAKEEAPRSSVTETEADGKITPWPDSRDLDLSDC

Regarding `O=C(NC1(C(F)(F)F)CCC1)c1nn(-c2cnccn2)c2c1CC1CCC2O1` (stereo not drawn) [Compound 10, 1-(pyrazin-2-yl)-N-(1-(trifluoromethyl)cyclobutyl)-1,4,5,6,7,8-hexahydro-5,8-epoxycyclohepta[c]pyrazole-3-carboxamide], the values for the EC50 in experiment [1] (setting [3]) and in experiment [2] (setting [5]) were 0.04 nM and 571 nM, respectively. Also, the Emax in experiment [1] (setting [4]) was 100%; in experiment [2] (setting [6]), 90.3%.

`CC(C)(C)[C@@H](CO)NC(=O)c1nn(-c2cnccn2)c2c1C[C@H]1CC[C@@H]2O1` [Compound 8, (5R,8S)-N-((S)-1-hydroxy-3,3-dimethylbutan-2-yl)-1-(pyrazin-2-yl)-1,4,5,6,7,8-hexahydro-5,8-epoxycyclohepta[c]pyrazole-3-carboxamide]: the concentration giving a half-maximal response (EC50) in experiment [1] (setting [3]) stood at 0.09 nM; in experiment [2] (setting [5]) it was 422 nM. For the same molecule, the maximal effect (Emax) turned out to be 100% in experiment [1] (setting [4]) and 111% in experiment [2] (setting [6]).

With `CC(C)(C)NC(=O)c1nn(-c2cnccn2)c2c1CC1CCC2O1` (stereo not drawn) [Compound 3, N-(tert-butyl)-1-(pyrazin-2-yl)-1,4,5,6,7,8-hexahydro-5,8-epoxycyclohepta[c]pyrazole-3-carboxamide], the values for the concentration giving a half-maximal response (EC50) in experiment [1] (setting [3]) and in experiment [2] (setting [5]) were 3.8 nM and 2080 nM, respectively. Also, the maximal effect (Emax) in experiment [1] (setting [4]) stood at 99.7%; in experiment [2] (setting [6]), 94.8%.

For the molecule `CC(C)(C)c1noc(-c2nn(-c3c[n+]([O-])ccn3)c3c2CC2CCC3O2)n1` (stereo not drawn) [Compound 26, 3-(3-(3-(tert-butyl)-1,2,4-oxadiazol-5-yl)-5,6,7,8-tetrahydro-5,8-epoxycyclohepta[c]pyrazol-1(4H)-yl)pyrazine 1-oxide], the half-maximal effective concentration (EC50) in experiment [1] (setting [3]) stood at 0.13 nM; in experiment [2] (setting [5]) it was 4920 nM. Besides, the maximum response (Emax) in experiment [1] (setting [4]) turned out to be 100%; in experiment [2] (setting [6]) it was 73.3%.

Take `CC(C)(C)NC(=O)c1nn(-c2c[n+]([O-])ccn2)c2c1CC1CCC2O1` (stereo not drawn) [Compound 31, 3-(3-(tert-butylcarbamoyl)-5,6,7,8-tetrahydro-5,8-epoxycyclohepta[c]pyrazol-1(4H)-yl)pyrazine 1-oxide]: the concentration giving a half-maximal response (EC50) in experiment [1] (setting [3]) came out at 0.33 nM; in experiment [2] (setting [5]) it was 1430 nM. In addition, the figures for the Emax in experiment [1] (setting [4]) and in experiment [2] (setting [6]) were 99.7% and 83.2%, respectively.

`CC(C)(C)[C@@H](CO)NC(=O)c1nn(-c2c[n+]([O-])ccn2)c2c1C[C@H]1CC[C@@H]2O1` [Compound 16, 3-((5R,8S)-3-(((S)-1-hydroxy-3,3-dimethylbutan-2-yl)carbamoyl)-5,6,7,8-tetrahydro-5,8-epoxycyclohepta[c]pyrazol-1(4H)-yl)pyrazine 1-oxide]: the EC50 came out at 0.09 nM in experiment [1] (setting [3]) and 352 nM in experiment [2] (setting [5]). Also, the values for the maximal effect (Emax) in experiment [1] (setting [4]) and in experiment [2] (setting [6]) were 101% and 91.3%, respectively.

`O=C(NC[C@]12C[C@@H]3C[C@@H](C[C@@H](C3)C1)C2)c1nn(-c2ccc(F)cc2F)c2c1CC1CCC2O1` [Compound 42, N-(((3r,5r,7r)-adamantan-1-yl)methyl)-1-(2,4-difluorophenyl)-1,4,5,6,7,8-hexahydro-5,8-epoxycyclohepta[c]pyrazole-3-carboxamide]: the concentration for a half-maximal effect (EC50) in experiment [1] (setting [3]) was 10.3 nM; in experiment [2] (setting [5]), 260 nM. The Emax worked out at 77.1% in experiment [1] (setting [4]) and 98.2% in experiment [2] (setting [6]).

Regarding `CC(C)(C)c1nnc(-c2nn(-c3c[n+]([O-])ccn3)c3c2CC2CCC3O2)o1` (stereo not drawn) [Compound 29, 3-(3-(5-(tert-butyl)-1,3,4-oxadiazol-2-yl)-5,6,7,8-tetrahydro-5,8-epoxycyclohepta[c]pyrazol-1(4H)-yl)pyrazine 1-oxide], the concentration giving a half-maximal response (EC50) turned out to be 0.2 nM in experiment [1] (setting [3]) and 2370 nM in experiment [2] (setting [5]). The Emax in experiment [1] (setting [4]) worked out at 101%; in experiment [2] (setting [6]), 79.3%.

In the case of `CCC(C)(C)c1noc(-c2nn(-c3c[n+]([O-])ccn3)c3c2CC2CCC3O2)n1` (stereo not drawn) [Compound 25, 3-(3-(3-(tert-pentyl)-1,2,4-oxadiazol-5-yl)-5,6,7,8-tetrahydro-5,8-epoxycyclohepta[c]pyrazol-1(4H)-y)pyrazine 1-oxide], the half-maximal effective concentration (EC50) was 0.02 nM in experiment [1] (setting [3]) and 114 nM in experiment [2] (setting [5]). Further, the maximum response (Emax) was 99.5% in experiment [1] (setting [4]) and 98.9% in experiment [2] (setting [6]).

For the molecule `O=C(NC12CC(C1)C2)c1nn(-c2c[n+]([O-])ccn2)c2c1CC1CCC2O1` (stereo not drawn) [Compound 20, 3-(3-(bicyclo[1.1.1]pentan-1-ylcarbamoyl)-5,6,7,8-tetrahydro-5,8-epoxycyclohepta[c]pyrazol-1(4H)-yl)pyrazine 1-oxide], the half-maximal effective concentration (EC50) in experiment [1] (setting [3]) stood at 0.05 nM; in experiment [2] (setting [5]), 1780 nM. Besides, the Emax was found to be 100% in experiment [1] (setting [4]) and 91% in experiment [2] (setting [6]).

`CC(C)(C)c1nnc(-c2nn(-c3cnccn3)c3c2CC2CCC3O2)s1` (stereo not drawn) [Compound 38, 3-(5-(tert-butyl)-1,3,4-thiadiazol-2-yl)-1-(pyrazin-2-yl)-1,4,5,6,7,8-hexahydro-5,8-epoxycyclohepta[c]pyrazole]: the concentration giving a half-maximal response (EC50) in experiment [1] amounted to 0.04 nM; in experiment [2], 283 nM. In addition, the maximum response (Emax) in experiment [1] (setting [4]) was determined as 100%; in experiment [2] (setting [6]) it was 114%.

As to `CC(C)(C)c1nnc(-c2nn(-c3c[n+]([O-])ccn3)c3c2CC2CCC3O2)s1` (stereo not drawn) [Compound 27, 3-(3-(5-(tert-butyl)-1,3,4-thiadiazol-2-yl)-5,6,7,8-tetrahydro-5,8-epoxycyclohepta[c]pyrazol-1(4H)-yl)pyrazine 1-oxide], the figures for the concentration for a half-maximal effect (EC50) in experiment [1] (setting [3]) and in experiment [2] (setting [5]) were 0.06 nM and 130 nM, respectively. In addition, the maximal effect (Emax) was 99% in experiment [1] (setting [4]) and 94.9% in experiment [2] (setting [6]).

With `O=C(NC12CC3CC(CC1C3)C2)c1nn(-c2c[n+]([O-])ccn2)c2c1CC1CCC2O1` [Compound 21, 3-(3-(((2R,3as,5S,6as)-hexahydro-2,5-methanopentalen-3a(1H)-yl)carbamoyl)-5,6,7,8-tetrahydro-5,8-epoxycyclohepta[c]pyrazol-1(4H)-yl)pyrazine 1-oxide], the EC50 came to 0.02 nM in experiment [1] (setting [3]) and 28.2 nM in experiment [2] (setting [5]). The maximal response (Emax) was found to be 99.9% in experiment [1] (setting [4]) and 94.9% in experiment [2] (setting [6]).

With `CC(C)(C)NC(=O)c1nn(-c2ccc(F)cc2F)c2c1CC1CCC2O1` (stereo not drawn) [Compound 1, N-(tert-butyl)-1-(2,4-difluorophenyl)-1,4,5,6,7,8-hexahydro-5,8-epoxycyclohepta[c]pyrazole-3-carboxamide], the EC50 was 1.2 nM in experiment [1] (setting [3]) and 108 nM in experiment [2] (setting [5]). Further, the maximal effect (Emax) came out at 95.6% in experiment [1] (setting [4]) and 99% in experiment [2] (setting [6]).

`CC(C)(C)c1cnc(-c2nn(-c3c[n+]([O-])ccn3)c3c2CC2CCC3O2)s1` (stereo not drawn) [Compound 24, 3-(3-(5-(tert-butyl)thiazol-2-yl)-5,6,7,8-tetrahydro-5,8-epoxycyclohepta[c]pyrazol-1(4H)-yl)pyrazine 1-oxide]: the 50% effective concentration (EC50) amounted to 0.06 nM in experiment [1] (setting [3]) and 65.7 nM in experiment [2] (setting [5]). Further, the Emax in experiment [1] (setting [4]) was found to be 97.8%; in experiment [2] (setting [6]), 95.5%.

On to `O=C(NC12CC3CC(CC1C3)C2)c1nn(-c2cnccn2)c2c1CC1CCC2O1` [Compound 13, N-((2R,3as,5S,6as)-hexahydro-2,5-methanopentalen-3a(1H)-yl)-1-(pyrazin-2-yl)-1,4,5,6,7,8-hexahydro-5,8-epoxycyclohepta[c]pyrazole-3-carboxamide], for which the concentration giving a half-maximal response (EC50) in experiment [1] (setting [3]) was 0.02 nM; in experiment [2] (setting [5]) it was 16.6 nM. Besides, the Emax stood at 100% in experiment [1] (setting [4]) and 111% in experiment [2] (setting [6]).

Consider `O=C(NC1(C(F)(F)F)CCC1)c1nn(-c2c[n+]([O-])ccn2)c2c1CC1CCC2O1` (stereo not drawn) [Compound 18, 3-(3-((1-(trifluoromethyl)cyclobutyl)carbamoyl)-5,6,7,8-tetrahydro-5,8-epoxycyclohepta[c]pyrazol-1(4H)-yl)pyrazine 1-oxide], for which the figures for the concentration giving a half-maximal response (EC50) in experiment [1] (setting [3]) and in experiment [2] (setting [5]) were 0.04 nM and 198 nM, respectively. The Emax was found to be 99.9% in experiment [1] (setting [4]) and 90.7% in experiment [2] (setting [6]).

On to `O=C(NC12CCC(CC1)CC2)c1nn(-c2cnccn2)c2c1CC1CCC2O1` (stereo not drawn) [Compound 14, N-(bicyclo[2.2.2]octan-1-yl)-1-(pyrazin-2-yl)-1,4,5,6,7,8-hexahydro-5,8-epoxycyclohepta[c]pyrazole-3-carboxamide], for which the EC50 in experiment [1] (setting [3]) worked out at 0.06 nM; in experiment [2] (setting [5]), 61.8 nM. For the same molecule, the Emax in experiment [1] (setting [4]) came out at 100%; in experiment [2] (setting [6]), 103%.
